# From ChEMBL document CHEMBL3352097, “Small molecule inhibitors targeting activator protein 1 (AP-1)” (J Med Chem, 2014)
# Assays:
# [1] = molecular target: T1, Retinoic acid receptor RXR-alpha (Homo sapiens, UniProt P19793); experiment: Activity at RXRalpha (unknown origin)
# T1 sequence (P19793 whole entry): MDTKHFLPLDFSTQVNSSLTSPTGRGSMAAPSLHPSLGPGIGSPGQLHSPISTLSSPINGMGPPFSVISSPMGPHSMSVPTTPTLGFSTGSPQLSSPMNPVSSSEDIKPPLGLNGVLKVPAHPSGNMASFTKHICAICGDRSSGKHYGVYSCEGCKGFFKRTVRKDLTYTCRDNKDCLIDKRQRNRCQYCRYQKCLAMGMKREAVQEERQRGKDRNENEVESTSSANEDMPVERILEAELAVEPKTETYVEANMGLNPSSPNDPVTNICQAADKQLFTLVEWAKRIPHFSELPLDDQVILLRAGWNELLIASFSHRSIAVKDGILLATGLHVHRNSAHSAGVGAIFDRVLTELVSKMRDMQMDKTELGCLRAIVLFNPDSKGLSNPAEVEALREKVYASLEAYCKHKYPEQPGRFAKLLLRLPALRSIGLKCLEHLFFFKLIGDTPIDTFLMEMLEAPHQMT
# [2] = molecular target: T2, Retinoic acid receptor beta (Homo sapiens, UniProt P10826); experiment: Activity at RARbeta (unknown origin)
# T2 sequence (P10826 whole entry): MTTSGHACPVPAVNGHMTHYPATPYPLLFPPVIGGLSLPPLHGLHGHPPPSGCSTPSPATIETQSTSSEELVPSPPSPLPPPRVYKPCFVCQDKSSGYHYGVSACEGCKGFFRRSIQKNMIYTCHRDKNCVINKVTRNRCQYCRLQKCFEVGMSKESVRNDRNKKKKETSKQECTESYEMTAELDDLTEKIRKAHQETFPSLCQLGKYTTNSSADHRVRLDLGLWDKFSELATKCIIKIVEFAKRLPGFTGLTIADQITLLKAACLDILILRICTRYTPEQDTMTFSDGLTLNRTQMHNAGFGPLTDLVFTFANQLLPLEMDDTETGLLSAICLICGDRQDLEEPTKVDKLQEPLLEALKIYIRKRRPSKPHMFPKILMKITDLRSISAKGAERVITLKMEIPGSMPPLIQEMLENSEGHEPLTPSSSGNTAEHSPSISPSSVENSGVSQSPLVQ
# [3] = molecular target: T3, Retinoic acid receptor gamma (Homo sapiens, UniProt P13631); experiment: Activity at RARgamma (unknown origin)
# T3 sequence (P13631 whole entry): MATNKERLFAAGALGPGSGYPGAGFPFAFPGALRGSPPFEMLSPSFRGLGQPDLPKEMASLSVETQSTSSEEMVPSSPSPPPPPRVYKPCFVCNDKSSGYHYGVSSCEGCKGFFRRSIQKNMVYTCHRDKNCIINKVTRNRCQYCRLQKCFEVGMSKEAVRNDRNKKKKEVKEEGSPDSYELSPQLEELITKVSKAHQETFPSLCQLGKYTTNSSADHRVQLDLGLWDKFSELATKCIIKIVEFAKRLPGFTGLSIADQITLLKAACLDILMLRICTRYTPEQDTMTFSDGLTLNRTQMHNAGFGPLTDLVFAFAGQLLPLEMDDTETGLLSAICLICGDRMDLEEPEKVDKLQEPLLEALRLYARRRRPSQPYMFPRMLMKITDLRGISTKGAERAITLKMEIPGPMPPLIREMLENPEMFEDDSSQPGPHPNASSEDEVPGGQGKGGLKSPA
# [4] = molecular target: T4, Retinoic acid receptor alpha (Homo sapiens, UniProt P10276); experiment: Activity at RARalpha (unknown origin)
# T4 sequence (P10276 whole entry): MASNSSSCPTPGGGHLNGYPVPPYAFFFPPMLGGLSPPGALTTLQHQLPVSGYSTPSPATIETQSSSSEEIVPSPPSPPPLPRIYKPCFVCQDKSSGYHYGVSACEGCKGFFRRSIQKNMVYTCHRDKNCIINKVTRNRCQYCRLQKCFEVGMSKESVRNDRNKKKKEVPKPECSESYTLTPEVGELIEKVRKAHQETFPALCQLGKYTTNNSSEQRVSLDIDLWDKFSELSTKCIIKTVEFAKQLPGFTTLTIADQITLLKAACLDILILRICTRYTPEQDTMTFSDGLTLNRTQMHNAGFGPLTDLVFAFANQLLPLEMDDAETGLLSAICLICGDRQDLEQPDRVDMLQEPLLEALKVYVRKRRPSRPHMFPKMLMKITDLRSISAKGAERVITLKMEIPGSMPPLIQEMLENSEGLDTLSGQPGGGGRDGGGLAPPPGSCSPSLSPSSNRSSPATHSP
# [5] = molecular target: Transcription factor Jun (Homo sapiens, UniProt P05412); experiment: Inhibition of AP-1-mediated transcriptional activation in HEK293 cells by luciferase reporter gene assay; format: cell-based
# [6] = system: Rattus norvegicus; experiment: Antiinflammatory activity in carrageenan injection-induced rat inflammation model assessed as inhibition of rat paw edema; format: functional
# Chain of Transcription factor Jun (P05412 whole entry): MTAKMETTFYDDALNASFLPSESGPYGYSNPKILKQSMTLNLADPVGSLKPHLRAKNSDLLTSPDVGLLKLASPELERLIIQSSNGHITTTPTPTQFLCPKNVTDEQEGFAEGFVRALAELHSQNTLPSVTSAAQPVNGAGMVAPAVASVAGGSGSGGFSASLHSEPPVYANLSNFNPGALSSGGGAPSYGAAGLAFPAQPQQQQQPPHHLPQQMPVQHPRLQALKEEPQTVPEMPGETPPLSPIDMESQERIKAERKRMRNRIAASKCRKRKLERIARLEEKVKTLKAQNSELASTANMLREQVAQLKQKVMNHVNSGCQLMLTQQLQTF
EC50 [1],EC50 [2],EC50 [3],EC50 [4],IC50 [5],Compound,inhibition (INH) [6]
> 1000 nM,> 1000 nM,> 1000 nM,> 1000 nM,–,CC1=C(/C=C/C(=C/C=C/C(C)=C/C(=O)O)c2ccc(C)cc2)C(C)(C)CCC1,–
–,–,–,–,500 nM,CNc1nc(-c2ccccc2)c(-c2nc3ccccc3c(=O)n2-c2ccccc2OC)s1,56%
